Structures are written as SMILES. “Also recorded” adds a separate entry of the source.

For one assay, the target named is IspA S81F (Escherichia coli, UniProt P22939, S80F). Format: biochemical. As to conditions: DMAPP as starter unit.
Assay [1] deals with IspA, a farnesyl diphosphate synthase (FPPase) (Escherichia coli, UniProt P22939). The note with it: wild-type IspA.
Another assay deals with IspA Y80D (Escherichia coli, UniProt P22939, Y79D). Format: biochemical. The note with it: DMAPP as starter unit.
The target in assay [2] is T1, isopentenyl phosphate kinase (IPK) (Thermoplasma acidophilum, UniProt Q9HLX1).
T1 sequence (Q9HLX1 1-245): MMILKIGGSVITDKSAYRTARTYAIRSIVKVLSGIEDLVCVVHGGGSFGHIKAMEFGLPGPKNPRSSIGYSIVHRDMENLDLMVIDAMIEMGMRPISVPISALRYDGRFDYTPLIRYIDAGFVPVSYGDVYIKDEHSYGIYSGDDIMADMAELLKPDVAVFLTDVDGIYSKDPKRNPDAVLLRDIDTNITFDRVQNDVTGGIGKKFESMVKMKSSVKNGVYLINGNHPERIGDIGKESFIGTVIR
Briefly: NADH-coupled kinetic assay of IPK. As to conditions: IPK with monophosphorylated substrate, ± SD of the mean.
Method: The data was fitted to the Michaelis-Menten equation using SigmaPlot, and the kinetic parameters (kcat, Km, kcat/Km) extracted.
NADH-Coupled Kinetic Assays. NADH coupled assays were performed with purified enzymes. Reaction progress was monitored by absorbance at 340 nm at 30° C. in a 96-well plate using a Biotek Synergy 4 plate reader (Winooski, Vt.). 200 μL enzymatic mixtures contained 50 mM Tris (pH 8.0), 25 mM KCl, 2.5 mM MgCl2, 0.05 mM DTT, 1 mM ATP, 320 μM NADH, 400 μM phosphoenolpyruvate, 0.5 U pyruvate kinase, 0.7 U lactate dehydrogenase, and various amounts of substrate. Conditions were verified by doubling enzyme and verifying the initial rate was doubled as well.
Kinetics of IPK were done with purified enzyme using 0.09 μg of enzyme per well. Serial dilution was used to generate specific concentrations of substrates (3125, 1562, 781, 625, 391, 195, 98, 24, 12, and 3 μM). Each condition was performed in triplicate. Nonlinear regression was fitted using SigmaPlot (Systat Software Inc., San Jose, Calif., USA).

Sequence of IspA, a farnesyl diphosphate synthase (FPPase) (P22939 whole entry): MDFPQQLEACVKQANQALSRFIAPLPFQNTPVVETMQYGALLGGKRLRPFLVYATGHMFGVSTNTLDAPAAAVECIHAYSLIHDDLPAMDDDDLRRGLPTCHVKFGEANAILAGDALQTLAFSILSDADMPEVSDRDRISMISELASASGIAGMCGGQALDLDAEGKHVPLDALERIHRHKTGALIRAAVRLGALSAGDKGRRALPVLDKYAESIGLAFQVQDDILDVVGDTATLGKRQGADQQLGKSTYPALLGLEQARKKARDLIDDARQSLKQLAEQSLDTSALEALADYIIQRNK
Sequence of IspA S81F (P22939 whole entry S80F): as the sequence (P22939 whole entry) above, with S80F counted along it
Sequence of IspA Y80D (P22939 whole entry Y79D): as the sequence (P22939 whole entry) above, with Y79D counted along it

For the compound `CCC/C=C/COP(=O)(O)O` [Substrate 29], the “use as extender unit in place of IPP (conversion by LC-MS), words” value at IspA S81F and on IspA Y80D was “most efficient analogues” throughout. Also, in assay [1] (DMAPP as starter unit), the “use as extender unit in place of IPP (GPP analogue by LC-MS), words” value was “accepted by IspA; also recorded: most efficient analogues”. For the same compound, in assay [1] (GPP as starter unit), the “use as extender unit in place of IPP (FPP analogue by LC-MS), words” value is reported as “almost as good as that with IPP; also recorded: accepted by IspA”. For the same compound, the kcat in assay [2] stood at 43.0 ± 17.8 s⁻¹. Besides, in assay [2] (1 mM ATP, 30° C.), the Km was 6.83 ± 3.77 mM.

The record behind these values is patent publication US20220162188A1, “ISOPRENOIDS AND METHODS OF MAKING THEREOF” (NORTH CAROLINA STATE UNIVERSITY, priority 2019, published 2022).
